# Assay results taken from patent US9840510B1, “Pyrazolo[1,5-a]pyrimidinyl carboxamide compounds and their use in the treatment of medical disorders” (Lysosomal Therapeutics Inc., priority 2016, dated 2017).
# Experiment: Compound solubility in water
# Assay type: physicochemical
SMILES,solubility [µg/mL],Compound Solubility in Water [µg/mL]
CCc1cc(-c2ccccn2)n2ncc(C(=O)NC(C)C(F)(F)F)c2n1 (stereo not shown) [III-51],14.1,–
Cc1cc(C)n2ncc(C(=O)N[C@H](C)C3CCCCC3)c2n1 [III-3],8.7,–
Cc1cc(-c2cccc(Cl)n2)nc2c(C(=O)N[C@@H](C)C3CC3)cnn12 [III-131],0.6,–
Cc1cc(-c2cccnc2F)nc2c(C(=O)NC(C3CC3)C(F)(F)F)cnn12 (stereo not shown) [III-113],–,1.0
Cc1cc(-c2cccc(C#N)c2)nc2c(C(=O)N[C@@H](C)C3CC3)cnn12 [III-70],2.1,–
Cc1cc(N2CCCCC2)nc2c(C(=O)NC(C)(C)C3CC3)cnn12 [III-23],6.8,–
COCc1cc(-c2ccc(F)cc2)nc2c(C(=O)N[C@@H](C)C3CC3)cnn12 [III-46],3.4,–
COc1cccc(-c2cc(C)n3ncc(C(=O)N[C@H](C)C(F)(F)F)c3n2)c1 [III-90],2,–
Cc1cc(C)n2ncc(C(=O)NC3(C4CC4)CC3)c2n1 [III-12],38.4,–
Cc1cc(N2CCCCC2)n2ncc(C(=O)NC(C)(C)C3CC3)c2n1 [III-22],0.5,–
Cc1cc(-c2cccnc2)nc2c(C(=O)NC(C(C)C)C(F)(F)F)cnn12 (stereo not shown) [III-41],1.9,–
Cc1cc(-c2cccnc2Cl)nc2c(C(=O)NC(C3CC3)C(F)(F)F)cnn12 (stereo not shown) [III-123],2.1,–
COc1ccc(F)c(-c2cc(C)n3ncc(C(=O)N[C@@H](C)C(F)(F)F)c3n2)c1 [III-98],0.3,–
Cc1cc(N2CCCCC2)nc2c(C(=O)NC(C)C3CC3)cnn12 (stereo not shown) [III-31],43.5,–
Cc1cc(-c2cncc(F)c2)nc2c(C(=O)N[C@@H](C3CC3)C(F)(F)F)cnn12 [III-127],2.5,–

# The next lines start with the values.
solubility [µg/mL],Compound Solubility in Water [µg/mL],SMILES
2.3,–,COc1ccc(-c2cc(C)n3ncc(C(=O)NC(C)C(F)(F)F)c3n2)cn1 (stereo not shown) [III-271]
1.3,–,Cc1ccc(-c2cc(C)n3ncc(C(=O)N[C@@H](C4CC4)C(F)(F)F)c3n2)cn1 [III-280]
0.6,–,Cc1coc(-c2cc(C)n3ncc(C(=O)NC(C4CC4)C(F)(F)F)c3n2)n1 (stereo not shown) [III-254]
0.1,–,Cc1cc(-c2ccc(F)cn2)nc2c(C(=O)NC(C3CC3)C(F)(F)F)cnn12 (stereo not shown) [III-204]
8.9,–,COc1ccncc1-c1cc(C)n2ncc(C(=O)NC(C3CC3)C(F)(F)F)c2n1 (stereo not shown) [III-263]
5.1,–,Cc1cc(-c2ccccc2)nc2c(C(=O)N[C@@H](C)C3CC3)cnn12 [III-136]
0.3,–,Cc1cc(-c2cscc2C#N)nc2c(C(=O)NC(C3CC3)C(F)(F)F)cnn12 (stereo not shown) [III-188]
0.5,–,Cc1cc(-c2ccoc2)nc2c(C(=O)NC(C3CC3)C(F)(F)F)cnn12 (stereo not shown) [III-187]
1.7,–,Cc1ccc(-c2cc(C)n3ncc(C(=O)N[C@H](C4CC4)C(F)(F)F)c3n2)c(F)n1 [III-372]
0.2,–,Cc1cc(-c2cccc(-c3ncncn3)c2)nc2c(C(=O)NC(C3CC3)C(F)(F)F)cnn12 (stereo not shown) [III-177]
1.2,–,Cc1cc(-c2cncc(C(F)(F)F)c2)nc2c(C(=O)NC(C)C(F)(F)F)cnn12 (stereo not shown) [III-285]
0.2,–,Cc1cc(-c2cc(C)n3ncc(C(=O)N[C@H](C)C(F)(F)F)c3n2)co1 [III-338]
6.2,–,Cc1cncc(-c2cc(C)n3ncc(C(=O)NC(C)C(F)(F)F)c3n2)c1 (stereo not shown) [III-282]
5.1,–,Cc1cc(-c2sccc2C#N)nc2c(C(=O)NC(C3CC3)C(F)(F)F)cnn12 (stereo not shown) [III-189]
0.7,–,Cc1ncc(-c2cc(C)n3ncc(C(=O)N[C@@H](C4CC4)C(F)(F)F)c3n2)o1 [III-248]
0.3,–,Cc1cc(-c2nnc(C(C)C)o2)nc2c(C(=O)N[C@H](C3CC3)C(F)(F)F)cnn12 [III-391]
0.7,–,Cc1cc(-c2ccc3ocnc3c2)nc2c(C(=O)N[C@H](C)C(F)(F)F)cnn12 [III-167]
13.5,–,CCc1cc(N2CCOCC2)nc2c(C(=O)NC(C3CC3)C(F)(F)F)cnn12 (stereo not shown) [III-238]
0.7,–,Cc1cc(-c2ccc(F)cc2)nc2c(C(=O)N[C@H](C)C(F)(F)F)cnn12 [III-359]
